We go through 1 molecule from PMC9046208, “Foldamers reveal and validate therapeutic targets associated with toxic α-synuclein self-assembly” (Nature Communications, 2022).

For one assay, the target named is Aβ42 aggregation (Homo sapiens, UniProt P05067). Briefly: ThT aggregation assay, Aβ42. In kind it is biochemical. The settings on record: equimolar ratio. As to the method:
The aggregation kinetics of αS was monitored using ThT fluorescence assay (λex = 450 nm and λem = 485 nm). To study the aggregation kinetics of αS, the ThT dye at a final concentration of 50 μM was added to 100 μM αS solution in the aggregation buffer (1 x PBS buffer) with and without various concentrations of SK-129 in a Costar black 96–well plate (Corning Inc., Kennebunk, ME). The small molecules were dissolved in dimethyl sulfoxide (DMSO; final DMSO concentration = 0.5%, v/v). The final volume in each well was 140 μL. The plate was incubated at 37 °C with 16 min shaking (434 rpm) and 44 min without shaking in an Infinite M200PRO plate reader (Tecan, Männedorf, Switzerland) and fluorescence was recorded after every hour. We used two methods to quantify the effect of molecules on the aggregation of αS; either we have reported the t50 (time required to reach 50% fluorescence of ThT), which was extracted by fitting the ThT curve as a sigmoidal fit or the absolute ThT fluorescence intensity was reported. […] In the second method, we determined the final ThT fluorescence intensity for the aggregation of αS/Aβ42(with or without ligands) as an average of three separate experiments. […]
The data were expressed as mean and the error bars report the s.e.m. […]

The subject of assay [1] is HEK cells expressing αS-A53T-YFP. Briefly: Inclusion count by confocal imaging, HEK cells αS-A53T-YFP. In kind it is cell-based. As to conditions: αS fibers 7 μM aggregated with equimolar SK-129, 24 h. On the procedure:
The Lipofectamine solution (Lipofectamine+P3000 reagent, Thermo Fisher Scientific, Waltham, MA) was diluted to a ratio of 1:20 (v,v) in the OptiMEM (Fisher Scientific, Pittsburgh, PA) media. Simultaneously, the αS fiber solution (Stock solution conc. = 100 μM) was diluted in OptiMEM media to the desired conc. used for each assay. The αS fiber solution was sonicated for 10 min at r.t., followed by the addition of the Lipofectomine solution (in the OptiMEM media) at 1:1 ratio. Subsequently, this solution was incubated for another 10 min and then added to the HEK cells media with a dilution factor of 10 (10 μL of the combined αS fiber solution+Lipofectomine solution, in 90 μL HEK cells media). […]
We used confocal microscopy imaging to manually count the endogenous inclusions (of αS-A53T-YFP and αS-YFP). […] The counting of inclusions was carried out for six different experiments and for each experiment, 100 cells were counted from at least four different locations from the eight-well plate. The cells were counted manually by counting the number of Hoechst 33342 dye-stained nuclei in the cells. Also, the inclusions in the cells were counted manually at different locations in the eight-well plate.

Aβ42 aggregation, sequence (P05067 672-713 limits assumed): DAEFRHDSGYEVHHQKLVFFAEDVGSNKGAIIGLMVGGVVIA

On to `COC(=O)c1cc(OCC(=O)O)c2cccc(NC(=O)c3cc(OC(C)C)c4cccc(NC(=O)c5cc(OCC(=O)O)c6cccc(NC(=O)c7cc(OC(C)C)c8cccc([N+](=O)[O-])c8n7)c6n5)c4n3)c2n1` [SK-129], for which the “effect on Aβ aggregation” value on Aβ42 aggregation is on record as “did not show any noticeable effect”. In addition, the “inclusions (αS-A53T-YFP or αS-YFP)” value in assay [1] was “A very small number of inclusions”.
